Literature values in US20180214382A1, “EDIBLE COMPOSITION COMPRISING A POLYSACCHARIDE AND A LIPID” (PERORA GMBH, priority 2015, published 2018).

Settings: rat feeding study; independent from intake

CCCCCCCCCCCCCCCCCC(=O)OCC(COC(=O)CCCCCCCCCCCCCCCCC)OC(=O)CCCCCCCCCCCCCCCCC [tristearin]
true digestibility of stearic acid from tristearin: 0.15 g/g
